Experimental data as given in patent US6518315B1, “Medicinal uses of phenylaikanols and derivatives” (The University of Sydney, priority 1997, dated 2003).
Where two headings read alike, the source gives them in different places. Values belong to the compound of their own block, whether it stands above or below them.

Key:
[1] = tested on: rat mesenteric artery; assay: Vasodilation on rat mesenteric artery
Text: The proposed mechanism of neuropeptide release by 1-(4-hydroxy-3-methoxyphenyl)dodecan-3-ol, similar to that of capsaicin, was supported by studies in blood vessels. […] This contrasts with capsaicin which has similar activity in Guinea pig atria (force and rate) and relaxing rat mesenteric artery.

[2] = tested on: guinea pig atria; assay: Organ bath assay, isolated guinea pig atria (rate and force of contraction)
Experimental: Male guinea pigs, 3-4 weeks old, were killed by rapid cervical dislocation without induced anaesthesia. Then, the guinea pigs were dissected to isolate the atria which were immediately mounted vertically in an organ bath containing Krebs-Henseleit solution oxygenated with carbogen.
One gram tension was applied to the atria and the base line continuously adjusted until it was stable for 20 mins. The rate and force of contraction were recorded using Mac Lab equipment.
Test substances in DMSO were assayed to a maximum concentration of 50 μM at a final concentration of 2.5% of DMSO.

[3] = tested on: rabbit platelet-rich plasma; assay: Antiplatelet aggregation screen with arachidonic acid as substrate; type: cell-based
[4] = tested on: capsaicin-sensitive DRG neuronal cells; assay: [Ca^2+]i transients in DRG neuronal cells in culture; type: cell-based, rat
Text: Effect of Gingerol Analogues Towards Rat Dorsal Root Ganglia
Capsaicin, the pungent component in peppers of the Capsicum genus, family Solanaceae, has the ability to excite a subset of sensory neurons, which include polymodal nociceptors and warm thermoceptors (Fitzgerald, 1983) by opening non-selective cation channels that are permeable to Na^+, K^+, and Ca^2+ (Bevan and Szolcsanyi, 1990). It has been shown that capsaicin evoked a concentration-dependent rise in [Ca^2+]i in cultured dorsal root ganglion neurons. The duration of the elevation of [Ca^2+]i depended on the concentration of capsaicin (Choleswinski, et al., 1993). In this investigation peak [Ca^2+]i transient measurements are used as a model for testing gingerol analogues.
DRG from neonatal (3-5 days old) rat or adult Sprague-Dawley rats were incubated in Hanks CMF saline with 0.05% collagenase and 0.25% trypsin for 25 min at 37° C. Individual cells were obtained by trituration with fire polished Pasteur pipettes of diminishing diameters. Neurones were isolated from the cell suspension in 30% Percoll and then plated on collagen coated coverslips or in 24-well plates, then cultured in neurobasal medium with B27 supplement, 50 ng/ml 2.5 S nerve growth factor, 2 mM 1-glutamine and 100 U/ml penicillin/streptomycin. Cultures were maintained at 37° C. with 5% CO2. 30% Percoll increases the percentage of capsaicin-sensitive DRG neurones up to 70%. For peak [Ca^2+]i transients measurements, cells on coverslips were incubated with 5 μM Fura-2 AM for 30 min at 37° C. The coverslips were then mounted on a chamber attached to a fast sample application perfusion system which allows changing solutions in the second range. Recordings were made on the stage of a Nikon Diaphot inverted microscope fitted with a Nikon 40×Fluo (NA 0.85) DL Ph3 or 40×Fluo (NA 1.3) oil objective. [Ca^2+]i was calculated from dual excitation wavelength (340/380 nm) fluorescence measurements following an intracellular calibration procedure by the Grynkiewicz equation, using MCID M2/M4 v.3.0 (Imaging Res. Inc.) software. Cells were continuously perfused with a solution consisting of 140 mM NaCl, 2 mM CaCl2, 5 mM KCl, 20 mM HEPES, 10 mM glucose, pH 7.4. To study KCl evoked depolarisation, 50 mM NaCl was replaced by equimolar KCl. Cytoplasmic localisation of Fura-2 was tested with the Mn^2+ quenching technique (Dedov and Roufogalis, 1998). All experiments were performed at room temperature (20-23° C.).
Typical changes in [Ca^2+]i upon depolarisation were evoked by 50 mM KCl and by application of 1 μM capsaicin; both were applied for 30 sec. Capsaicin-evoked peak [Ca^2+]i transients are characterised by a fast rise and long-steady state [Ca^2+]i clearance from the cytoplasm. In capsaicin-sensitive cells the half-time of cytoplasmic Ca^2+ clearance was proportional to the amplitudes of peak [Ca^2+]i transients.
To examine the effect of gingerol derivatives, one or several compounds in succession at a concentration of 10 μM were applied for 1 min to the DRG neuronal cells followed by washing out for 4 min with physiological solution. To the capsaicin-sensitive cells, 10 μM capsaicin and 50 mM KCl were applied, respectively, to confirm the viability of the cells. In addition, morphological appearances of the cells were also examined at the end of experiment. […]

[5] = tested on: right atrium rat; assay: Cardiovascular and neuro-effector junction activities: right atrium, rat; conditions: 3 × 10^−7-3 × 10^−6 M, with propranolol present
Text: (§1) Therefore, further investigation of the physicochemical properties as well as mechanism(s) of action of these substances, including gingerols, is required in relation to cardiotonicity. The mode of action of gingerols as cardiotonic agents has been […] and it was proposed that they act by direct stimulation of the cardiac SR Ca^2+-ATPase. This may load extra calcium into the intracellular stores in the sarcoplasmic reticulum allowing more calcium to be released on stimulation of the heart resulting in increased cardiac contractility. […] The cardiotonic action of 1-(4-hydroxy-3-methoxyphenyl)dodecan-3-ol [3.93] was confirmed from independent studies, carried out at our request as part of our agreement with Johnson & Johnson Research Ltd (J&J), by Prof. James Angus from the University of Melbourne. […] A tachycardial effect of the substance on guinea pig atria was, however, observed at significant rate, 50-60% of isoprenaline Emax and the response was not α- or β-adrenoceptor mediated.
(§2) Cardiovascular and Neuro-effector Junction Activities of Gingerol Analogues

[6] = tested on: brine shrimp (Artemia salina Leach); assay: Brine shrimp assay; type: in vivo; conditions: for LC50: 24 hours, 2% DMSO
Text: Toxicity—Brine Shrimp Assay
The brine shrimp assay procedure determines LC50 values of active compounds. Activities of a broad range of known active compounds are manifested as toxicity to brine shrimp (Artemia salina Leach). There are many applications of the assay including analysis of toxic substances, anaesthetics, morphine-like substances and cocarcinogenicity of phorbol esters.
DMSO (dimethyl sulfoxide) was the solvent of choice because of its good solubilising properties and also because the substances used in the ATPase inhibition assays were already prepared with DMSO.
The method for testing solvent toxicity used was basically that reported by J L McLaughlin in Methods of Plant Biochemistry (1991), vol. 6 (K Hostettman, ed.), Academic Press, London, 1-32. DMSO solutions of the substances to be tested were added directly to the vials containing the brine shrimp. As the concentration of DMSO is that we wished to use was higher than the recommended 1% v/v testing of the toxicity of the DMSO was therefore necessary. The concentrations of DMSO tested on the shrimp, along with the results from the assay which was done in duplicate are listed below.
Brine shrimp toxicity was assayed, except for some minor modifications, according to the method of McLaughlin et al as reported in Brine Shrimp: A convenient bioassay for active plant constituents, B N Meyer, N R Ferrigni, J E Putnam, L B Jacobsen, D E Nichols and J L McLaughlin in Planta Medica (1982), 45, 31-34 and Crown gall tumours on potato discs and brine shrimp lethality: Two simple bioassays for higher plant screening and fractionation. J L McLaughlin. Methods of Plant Biochemistry (1991), vol. 6 (K Hostettman, ed.), Academic Press, London, 1-32. Ten shrimp were transferred to each of the vials and the volume adjusted to 4.9 mL. Each dose was performed in triplicate, including the control. In quick succession, the appropriate volume of additional DMSO for each dose, required to achieve a final concentration of 2%, was added before the appropriate volume of test solution. The vials were gently mixed and the time noted. After 24 hours, the number of survivors were counted and % mortality was determined. The test compounds were assayed at concentrations of 100 μM, 25 μM, 5 μM, 1 μM and 0.2 μM (and where appropriate concentrations of 0.04 μM and 0.008 μM).
The brine shrimp were able to survive without food in the vials over the 24 hour period and were therefore not fed.
The dose-response curves were constructed using the Sigmaplot computer program and the LC50 value was calculated from the intersection point of the curve and the 50% mortality line. The LC50 values were expressed in both μM and μg/mL.
For substances with low toxicity, the greater sign “>” indicated the highest concentration at which the assay was carried out as precipitation of the substances occurred above that concentration.

[7] = tested on: right atrium guinea pig; assay: Cardiovascular and neuro-effector junction activities: right atrium, guinea pig; conditions: 10^−7-3 × 10^−5 M; not blocked by praz., prop.
Text: as §1, §2

[8] = tested on: left atrium guinea pig; assay: Cardiovascular and neuro-effector junction activities: left atrium, guinea pig
Experimental: In later studies positive inotropic activity was observed as a 50% increase on driven guinea pig left atria at 10 μM.
No effect was observed on nerve stimulation in atria.
as §1, §2

[9] = tested on: vas deferens rat; assay: Cardiovascular and neuro-effector junction activities: vas deferens, rat; conditions: 10^−4 M
Text: as §1, §2

[10] = tested on: cardiac Purkinje fibres; assay: Cardiac electrophysiology on Purkinje fibres; parameters: species or system dog; conditions: up to 10 μM
Experimental: Cardiac Electrophysiological Activities of Gingerol and its Analogue
The basic cardiac electrophysiological properties were assessed using cardiac Purkinje fibres obtained from adult mongrel dogs.
Electrophysiology was carried out on dog heart purkinje fibre to test for potential arrhythmia. […] At high concentration (50 μM), however, [8]-gingerol reduced approximate 80% and 50% of action potential duration at 50% and 90% repolarisations respectively. Whereas the analogue reduced 75% and 30% respectively.

[11] = tested on: diaphragm rat; assay: Cardiovascular and neuro-effector junction activities: diaphragm, rat; conditions: 10^−5 M
Text: as §1, §2

[12] = tested on: left atrium rat; assay: Cardiovascular and neuro-effector junction activities: left atrium, rat; conditions: 10^−7-3 × 10^−5 M
Text: as §1, §2

[13] = tested on: brine shrimp (Artemia salina Leach); conditions: in vivo; cited from earlier work

potency (EC50) for relaxation of mesenteric artery relative to inotropic effect in guinea pig atrium [1]: 100 fold
Compound: CCCCCCCCCC(O)CCc1ccc(O)c(OC)c1 (stereo not shown) [1-(4-hydroxy-3-methoxyphenyl)dodecan-3-ol]
relaxing vasopressin-contracted rat mesenteric small arteries ([1]; 10^−8 to 10^−6 M, 200-300 μm diameter): very potent | potency of one enantiomer relative to the other in increasing force of contraction in guinea pig atria [2]: 100 fold | FORCE OF CONTRACT^n, ↑ increase ([2]; @ 10 (μM)): ↑108% @ 10 | platelet function via adenosine diphosphate or thromboxane A mechanisms [3]: did not affect | antiplatelet aggregation potency relative to indomethacin ([3]; arachidonic acid as substrate, listed as 3-hydroxy-1-(4-hydroxy-3-methoxyphenyl)dodecane): three time more potent than the indomethacin reference compound | evoked [Ca^2+]i transients in Ca^2+-free medium or with ruthenium red ([4]; Ca^2+-free medium or ruthenium red (1 μM)): abolished or greatly diminished | effect on rate, right atrium rat [5]: tachycardia | toxicity towards brine shrimp, in words ([6]; in vivo): low toxicity | effect on rate, right atrium guinea pig [7]: tachycardia | arrhythmia on guinea pig driven left atria ([8]; 1 μM): followed by arrhythmia | inotropic effect, % isopren. max., left atrium guinea pig ([8]; 10^−6-3 × 10^−5 M): ˜20% | inotropism, left atrium guinea pig ([8]; 10^−6-3 × 10^−5 M (not in rat)): inotropic

Compound: CCCCCCCC(O)CC(=O)c1ccc(O)c(OC)c1 (stereo not shown) [3-hydroxy-1-(4-hydroxy-3-methoxyphenyl)decan-1-one]
effect on vas deferens rat [9]: no effect | FORCE OF CONTRACT^n (inotropic activity), result in words ([2]; assayed to a maximum of 50 μM): negative inotropic activity | HEART RATE (chronotropic activity), result in words ([2]; assayed to a maximum of 50 μM): negative chronotropic activity | effect on rate of depolarization, amplitude and duration of action potential (50% and 90%) ([10]; listed as 3-hydroxy-1-(4-hydroxy-3-methoxyphenyl)decanone): only a small effect | effect on rate of depolarization, amplitude and duration of action potential (50% and 90%) ([10]; listed as 3.92): insignificant effect | Peak [Ca^2+]i (Average ± SD) ([4]; 10 μM applied for 1 min, 2 mM Ca^2+): 0 nM | effect on diaphragm rat [11]: no effect | effect on left atrium rat [12]: no change | effect on isoprenaline response, left atrium guinea pig ([8]; up to 30 μM): no effect

Compound: COc1cc([C@@H]2c3cc4c(cc3[C@H](O)[C@H]3COC(=O)[C@H]23)OCO4)cc(OC)c1OC [podophyllotoxin, reference compound]
LC50 determined by Meyer et al. (1982) [13]: (2.4) μg/ml | LC50 [6]: 1.6 µg/mL | LC50 ([6]; read-out: LC50): 3.8 µM
